Measured values taken from patent publication US20120064180A1, “USE OF NO AND NO DONORS FOR TERMINATING DORMANCY IN INVERTEBRATES” (UNIVERSITEIT GENT, priority 2009, published 2012).
Structures can show the parent of a compound that is named as a salt.

Tests used:
Type in all cases: in vivo
[1] = system: eggs with diapaused embryos of Bombyx mori; experiment: Termination of embryonic diapause in eggs dipped in NO donor or HCl; settings: SpermineNONOate 1 mM 30 min dip; 20% HCl 5 min 48° C.
Description: All experiments were carried out on silkmoth strain Bombyx mori J106 (Lepidoptera: Bombycidae). Larvae were maintained on an artificial diet (Yakuruto Co.) under standard conditions of 25° C., 65% relevant humidity and 16 h light ([…] et al., 2003). Egg batches were collected from a continuous insect colony and used for the experiments. […] The latter treatment is the normally used procedure to break diapause in eggs with diapaused embryos for maintenance of the insect colony of B. mori ([…] et al., 2003). In a water-control, eggs with diapaused embryos were dipped in distilled water only, and in a blank-control, eggs with diapaused were not treated. […] The numbers of eggs with diapaused embryos per treatment (n) are given with the results.

[2] = system: Bolshoye Yarovoye Artemia cysts (ARC BY 1706); experiment: Post-diapause development of Bolshoye Yarovoye strain encysted Artemia embryos with NO donors; settings: for hatching after 24 hours: 40 and 60 μM, overcome by 48 hr; for concentration at which NO donor was most effective on cyst development: Bolshoye Yarovoye cysts, FIG. 2A-F
Description: (§1) Encysted embryos (cysts) from a parthenogenetic strain of Artemia obtained in winter 2005-2006 in Bolshoye Yarovoye (Altay Region: 52° 51′64″ N-78° 37′32″ E), Russia (Artemia Reference Center (ARC) code number BY 1706), were stored in the dark at 4° C. in dry sealed bags. For the experiment, the cysts were grown at 26-28° C. with constant illumination in 25 ml of sea water under varying experimental conditions as detailed below.
To quantify larval (nauplii) emergence and hatching (FIG. 1) which served as measures of cyst development, 6 samples of 250 μl from each 50 ml tube were mixed individually with 250 μl of sea water and 2 drops of Lugol's solution (Van Stappen, G, 1996) prior to counting nauplii (N) and umbrella (U) with the aid of a dissecting microscope. […] The extent of development was determined as the percent of developed cysts which was calculated as either the number of hatched larvae, or the number of hatched and emerged larvae, obtained from 100 cysts, the latter represented by the sum of hatched nauplii (larvae), emerged larvae and undeveloped cysts containing embryos.
(§2) The hatching percentage (H %) was calculated according to: […]
(§3) The hatching percentage plus (H^+%) was calculated according to: […]
The percent of developed cysts was calculated as described above.

[3] = system: Maloye Yarovoye Artemia cysts (ARC MY 1732); experiment: Post-diapause development of Maloye Yarovoye strain encysted Artemia embryos with NO donor
Description: as §1, with “2008” for “winter 2005-2006”, “Maloye” for “Bolshoye”, “53° 04′00″ N-79° 10′00″” for “52° 51′64″ N-78° 37′32″”, “MY 1732),” for “BY 1706),”
(§4) To quantify nauplii (larvae) emergence and hatching (FIG. 1) which served as measures of cyst development, 6 samples of 250 μl were taken from each 50 ml tube after 24 and 48 h. Subsequently the obtained samples were mixed individually with 250 μl of sea water and 2 drops of Lugol's solution (Van Stappen, G, 1996) prior to counting nauplii (N) and umbrella (U) with the aid of a stereomicroscope.
as §2, §3

[4] = system: Vinh Chau Artemia cysts (ARC VC 1742); experiment: Post-diapause development of Vinh Chau strain encysted Artemia embryos with NO donor
Description: Dry and processed embryos (cysts) from a strain of Artemia obtained in 2009 in the Soc Trang Province in the Mekong Delta (09° 19′48″ N-105° 58′11″ E) (Artemia Reference Center (ARC) code number VC 1742), were stored in the dark at 4° C. in tin cans, that were not resealed after the first opening. For the experiment, the cysts were grown at 26-28° C. with constant illumination in 25 ml of sea water under varying experimental conditions as detailed below.
as §4, with “after 10, 12, 14, 16, 18, 20, 22 and” for “after”, “h post incubation.” for “and 48 h.”
as §2, §3

[5] = system: resting eggs of Brachionus; experiment: Brachionus resting egg hatching
Description: Resting eggs of Brachionus were suspended in 20 ml seawater (25 g/l), supplemented with different concentrations of Sin-1 Chloride (1-60 μM) and put in a falcon tube. These tubes were put on a rotor at 28° C. under constant illumination. The effect on the hatching rate was measured after 48 hr and 72 hr of incubation, by counting emerged rotifers in function of the amount of NO donor added.

[6] = system: eggs with diapaused embryos of Bombyx mori; experiment: Termination of embryonic diapause in eggs by NO gas; settings: 5 days after treatment
Description: All experiments were carried out on silkmoth strain Bombyx mori J106 (Lepidoptera: Bombycidae). Larvae were maintained on an artificial diet (Yakuruto co.) under standard conditions of 25° C., 65% relative humidity and 16 h light (Tazima, Y., 1978; Swevers et al., 2003). Egg batches were collected from a continuous insect colony and used for the experiments.
In a first series, a batch of 70 eggs with diapaused embryos of B. mori were submerged for 5 minutes in 20% HCl (in distilled water) at 48° C., and then the eggs were washed with distilled water and dried to the air. […] The latter treatment is the normally used procedure to break diapause in eggs with diapaused embryos for maintenance of the insect colony of B. mori (Tazima, Y., 1978; Swevers et al., 2003). In a water-control, a batch of 70 eggs with diapaused embryos was submerged in distilled water for 5 minutes at 45° C., and in a blank-control, the same procedure was followed, but without addition of water.
In parallel, 4 batches of 70 eggs each, were put in Pyrex glass bottles of 100 mL, which were sealed gastight by means of a rubber stop and a screw cap. Then the air was removed from these bottles by inserting a needle (in the rubber stop) connected to a vacuum pump. Using 50 ppmv (Parts Per Million by Volume) NO gas (with N2 as carrier gas, purchased from Air Liquide) dilution series were prepared (with air as dilutor) to obtain final NO concentrations of 20, 200, 2000 and 20000 ppbv, in these bottles. Verification of the NO concentrations was done by sampling from a parallel bottle that received the same gas mixture as the treatment bottle and NO content was determined by using a chemiluminescence detector (CLD 77 Amsp, Eco Physics). 30 minutes after insertion of the gas mixtures, the rubber stops were removed. These treatments were all performed at room temperature.
Development of the neonate larvae (=hatching of first instar larvae from eggs) was scored at daily intervals. The numbers of eggs with diapaused embryos per treatment (n) are given with the results.

[7] = system: diapaused adults of Leptinotarsa decemlineata; experiment: Termination of adult diapause by NO gas
Description: All experiments were carried out on the Colorado potato beetle (potato beetle), Leptinotarsa decemlineata (Say) (Coleoptera: Chrysomelidae). Diapaused adult beetles were obtained by rearing larvae and pupae at 8 h light, 16 h dark, 25±2° C. and 70% relative humidity (Yi, et al., 2000). All life stages were fed potato (Solanum tuberosum L. ‘Bintje’) plants, that were refreshed daily. 15 days after adult emergence, the diapausing adults were placed in individual aluminum foil, 2.5-cm diameter ‘beakers’, containing fresh soil (Universal potting soil, Type 1, M. Snebbout n.v., Kaprijke, Belgium), and were stored at 4° C. in darkness.
Under red light, beetles were collected and put in Pyrex glass bottles of 100 mL, containing a layer of fresh soil. These bottles were wrapped in a double layer of aluminum foil to ensure complete darkness and sealed gastight by means of a rubber stop and a screw cap. The air was then removed by inserting a needle (in the rubber stop) connected to a vacuum pump. Using 50 ppmv NO gas (with N2 as carrier gas, purchased from Air Liquide), dilution series were prepared (with air as dilutor), and the desired final NO concentrations were injected in each bottle. A blank control, received ambient air only. Verification of the NO concentrations was done by sampling from a parallel bottle that received the same gas mixture as the treatment bottle. NO content was determined with a chemiluminescence detector (CLD 77 Amsp, Eco Physics). The treatments were all done at 4° C. in the dark and 30 minutes after insertion of the gas mixtures, the rubber stops were removed.
After the treatments, the beetles were collected in plastic containers (dimensions: 10×21×5 cm), containing fresh soil and potato leaves and kept at 25±3° C., 65% relative humidity and 8 h light (Exp. 1 and 2). In the last experiment (Exp 3), beetles were left at 4° C. in the dark for 6 hours before transfer to a 12° C. incubator, in the dark. The beetles that emerged were collected every day and the beetles' emergence per treatment (% of total) are given with the results.

Cl [20% HCl]
Number of developed neonates at day 6 [1]: 10
Number of developed neonates at day 7 [1]: 36
Number of developed neonates at day 8 [1]: 12
Number of developed neonates at day 14 [1]: 0
Number of undeveloped eggs at day 14 [1]: 14
eggs developed into neonate larvae at 6-8 days after treatment (total) [1]: 81%
percentage of developed neonates at day 14 [1]: (0%)

CC1(C)N([O])C(c2ccccc2)=[N+]([O-])C1(C)C [PTIO, 2-phenyl-4,4,5,5,-tetramethylimidazoline-1-oxyl 3-oxide]
effect of NO scavenger on cyst development promoted by NO donors ([2]; 300 μM PTIO with 0.5 μM Papa NONOate, 6.0 μM Spermine NONOate or 6.0 μM Sin-1 chloride, 48 hr): inhibited cyst development

CCCN(CCCN)N(O)N=O [Papa NONOate, 3-(2-hydroxy-2-nitroso-1-propylhydrazino)-1-propanamine]
hatching after 24 hours [2]: inhibited hatching almost completely
concentration at which NO donor was most effective on cyst development [2]: 0.63 µM
increase in number of nauplii compared to the control ([3]; 4 μM, 48 h): ~5 fold
hatching percentage (H %) ([3]; 4 μM, 48 h, control around 10%): 47%
optimal dose for inducing hatching ([3]; Maloye Yarovoye diapausing cysts): 4 µM
hatching percentage (H %) versus untreated control ([4]; 0.5 μM, 16 and 18 h post-treatment): significantly increased
hatching percentage (H %) versus non-treated controls ([4]; 1 and 4 μM, 16 hours and more): comparable to the non-treated controls
optimal dose ([4]; Vinh Chau cysts): 0.5 µM
hatching percentage plus (H+%) versus non-treated controls ([4]; all treatments (0.5, 1, 4 μM) at 12, 18 and 20 hours): significantly increase

[NH-]c1c[n+](N2CCOCC2)no1 [Sin-1 Chloride, 3-morpholine syndnonimine]
hatching after 24 hours [2]: less dramatic, but obvious
concentration at which NO donor was most effective on cyst development [2]: 4.0 µM
Percentage hatching of resting eggs ([5]; 1 μM, 48 hrs): 12.34% (3.62)
Percentage hatching of resting eggs ([5]; 1 μM, 72 hrs): 33.11% (2.66)
Percentage hatching of resting eggs ([5]; 6 μM, 48 hrs): 18.93% (1.25)
Percentage hatching of resting eggs ([5]; 6 μM, 72 hrs): 33.71% (0.66)
Percentage hatching of resting eggs ([5]; 10 μM, 72 hrs): 37.17% (2.88)
Percentage hatching of resting eggs ([5]; 20 μM, 48 hrs): 17.99% (3.18)
Percentage hatching of resting eggs ([5]; 20 μM, 72 hrs): 32.38% (2.63)
Percentage hatching of resting eggs ([5]; 60 μM, 48 hrs): 14.98% (3.52)
Percentage hatching of resting eggs ([5]; 60 μM, 72 hrs): 27.57% (1.00)

nitric oxide [NO gas]
eggs emerged ([6]; 0.02-20 ppmv NO, controls 0%): 27.1-37.1%
Percentage of developing eggs ([6]; 0.02 ppmv NO): 37.1%
Percentage of developing eggs ([6]; 0.20 ppmv NO): 35.7%
Percentage of developing eggs ([6]; 2.00 ppmv NO): 31.4%
Percentage of developing eggs ([6]; 20.0 ppmv NO): 27.1%
percentage of emerging adult beetles ([7]; 0.300 ppmv, after 4 days, in diapause for 27 days, blank control 14.3%): 42.9%
percentage of emerging adult beetles ([7]; 2.6 ppmv, 3 days after treatment, in diapause for 10 days): 20%
percentage of emerging adult beetles ([7]; 2.6 ppmv, day 6, in diapause for 10 days): 40%
percentage of emerging adult beetles ([7]; 6.1 ppmv, 3 days after treatment, in diapause for 10 days): 20%
percentage of emerging adult beetles ([7]; 6.1 ppmv, day 6, in diapause for 10 days): 20%
percentage of emerging adult beetles ([7]; 67.4 ppmv, after 4 days, in diapause for 10 days): 20%
